The text below walks through data of article PMC6492180, “Cytome micronucleus assays with a metabolically competent human derived liver cell line (Huh6): A promising approach for routine testing of chemicals?” (Environmental and Molecular Mutagenesis, 2018).

Like-named read-outs stand apart in the source and are kept apart here. Marks after values point to notes of the source that are not given here.

In data set [1] the test system is Huh6 cells. As to the method:
All experiments were performed in duplicate.
3.8–4.0 × 10^5 cells per well were seeded into 6‐well plates with 3 mL of RPMI (4% FBS) for 12 hr, then dilutions of stock solutions of the diagnostic mutagens were added for different time periods (4, 24, and 48 hr). In each experimental series solvent controls were included. Subsequently, the cells were washed twice with 3.0 mL medium. […] Finally, the cells were washed and trypsinised. Afterwards the cells were washed twice with 8.0 mL RPMI and collected on slides by cytocentrifugation (600 rpm, 5 min). The slides were air dried, fixed, and stained with DiffQuick according to the instructions of the manufacturer. For each experimental point, two cultures were tested per dose. From each culture ≥1,000 BN cells were evaluated under 400‐fold magnification (Nikon Photophot‐FXA, Tokyo, Japan). At least 2,000 binucleated cells were analyzed per dose for the determination of the different nuclear anomalies (MN, NBuds, and NBs).
The experiments were performed as described in the previous chapter. The cells were exposed only to one dose of the different mutagens and were cultivated after the seeding in 6‐well plates which contained 4% or 10% FBS in RPMI, respectively.
Data were evaluated by generalized linear model with Poisson counts. Chi‐square tests for overdispersion were applied. […] P values ≤0.05 were considered statistically significant.
^150-60 000 cells were seeded in 6 well plates with 3 ml RPMI (4% FBS), subsequently different solutions of the test compound (dissolved in medium) were added. After treatment for different time periods, the cells was washed and processed as described in the Material and Method section. […] From each culture 1000 binoculated cells were evaluated. BN-MN – number of micronucleated cells; MN - total number of micronuclei; CBPI – cytokinesis-block proliferation index
^1The experiments were conducted essentially as described in the footnote of Table S1A-I. *p≤0.05

Data set [2] relates to HepG2. As to conditions: cited from earlier work.
Data set [3] relates to Human lymphocytes. As to conditions: cited from earlier work.
The conditions of data set [4]: ref IARC (2018); cited from earlier work.
The test system of data set [5] is HepaRG. To be noted: HepaRG; ref Josse et al., 2012; cited from earlier work.
[6] abbreviates: 10% FBS, 24 hr treatment, 0.5 µg/ml.
Where [7] appears, read: 10% FBS, 24 hr treatment, 1 µg/ml.

As to `c1ccc2c(c1)cc1ccc3cccc4ccc2c1c34` [B(a)P, Benzo(a)pyrene], the CBPI in data set [1] (4% FBS, 4hrs, 5 µM) is on record as 1.6 ± 0.1; in data set [1] (4% FBS, 4hrs, 10 µM), 1.6 ± 0.0; in data set [1] (4% FBS, 4hrs, 20 µM), 1.6 ± 0.1; in data set [1] (4% FBS, 24hrs, 5 µM) it was 1.4 ± 0.1; in data set [1] (4% FBS, 24hrs, 10 µM), 1.2 ± 0.1; in data set [1] (4% FBS, 48hrs, 0.4 µM), 1.9 ± 0.0. The CBPI came out at 1.1 ± 0.1 in data set [1] (4% FBS, 48hrs, 5 µM); 1.7 ± 0.0 in data set [1] (10% FBS, 24 hr treatment, 5 µM); 1.3 ± 0.1 in data set [1] (10% FBS, 24 hr treatment, 10 µM).

For `[NH2][Pt]([NH2])([Cl])[Cl]` [CDDP, Cisplatin], the “MN effects after 24 hr (or longer) compared with 4 hr treatment (in words)” value in data set [1] (4% FBS) is on record as “similar”. The “Toxicity in MN experiment (Figure 3)” value in data set [1] (4% FBS, 1.0 μg/ml, 48h) is “Toxic”. Also, the “BN-MN (number of micronucleated cells)” value in data set [1] (4% FBS, 4hrs, 0.05 µg/ml) was 16.0 ± 1.4 ‰; in data set [1] (4% FBS, 4hrs, 0.1 µg/ml), 19.5 ± 0.7 ‰; in data set [1] (4% FBS, 4hrs, 0.5 µg/ml), 19.5 ± 0.7 ‰; in data set [1] (4% FBS, 4hrs, 1 µg/ml), 31.5 ± 5.0* ‰; in data set [1] (4% FBS, 24hrs, 0.1 µg/ml) it was 13.5 ± 0.7 ‰; in data set [1] (4% FBS, 24hrs, 0.5 µg/ml), 25.5 ± 0.7* ‰. Moreover, the “BN-MN (number of micronucleated cells)” value is listed as 29.5 ± 0.7* ‰ in data set [1] (4% FBS, 24hrs, 1 µg/ml); 16.5 ± 0.7 ‰ in data set [1] (4% FBS, 48hrs, 0.1 µg/ml); 20.0 ± 1.4 ‰ in data set [1] (4% FBS, 48hrs, […]); 38.0 ± 1.4* in data set [1] (setting [6]); 46.5 ± 2.1* in data set [1] (setting [7]). The Bridges in data set [1] (4% FBS, 4hrs, 0.05 µg/ml) is reported as 0.0 ± 0.0 ‰; in data set [1] (4% FBS, 4hrs, 0.1 µg/ml), 0.0 ± 0.0 ‰; in data set [1] (4% FBS, 4hrs, 0.5 µg/ml), 0.0 ± 0.0 ‰; in data set [1] (4% FBS, 4hrs, 1 µg/ml), 3.5 ± 0.7 ‰; in data set [1] (4% FBS, 24hrs, 0.1 µg/ml), 0.0 ± 0.0 ‰; in data set [1] (4% FBS, 24hrs, 0.5 µg/ml), 2.5 ± 0.7 ‰. Moreover, the Bridges in data set [1] (4% FBS, 24hrs, 1 µg/ml) was 5.0 ± 1.4 ‰; in data set [1] (4% FBS, 48hrs, 0.1 µg/ml), 0.0 ± 0.0 ‰; in data set [1] (setting [6]) it was 0.5 ± 0.7. Besides, the Buds in data set [1] (4% FBS, 4hrs, 0.05 µg/ml) was 15.5 ± 2.1 ‰; in data set [1] (4% FBS, 4hrs, 0.1 µg/ml) it was 16.5 ± 2.1 ‰; in data set [1] (4% FBS, 4hrs, 0.5 µg/ml), 19.0 ± 1.4* ‰; in data set [1] (4% FBS, 4hrs, 1 µg/ml), 34.0 ± 5.7* ‰; in data set [1] (4% FBS, 24hrs, 0.1 µg/ml), 15.5 ± 0.7 ‰; in data set [1] (4% FBS, 24hrs, 0.5 µg/ml), 30.5 ± 2.1* ‰. The Buds is 36.0 ± 2.8* ‰ in data set [1] (4% FBS, 24hrs, 1 µg/ml); 21.5 ± 2.1 ‰ in data set [1] (4% FBS, 48hrs, 0.1 µg/ml); 32.0 ± 5.7* in data set [1] (setting [6]); 49.0 ± 2.8* in data set [1] (setting [7]). For the same compound, the CBPI stood at 1.7 ± 0.1 in data set [1] (4% FBS, 4hrs, 0.05 µg/ml); 1.6 ± 0.1 in data set [1] (4% FBS, 4hrs, 0.1 µg/ml); 1.8 ± 0.1 in data set [1] (4% FBS, 4hrs, 0.5 µg/ml); 1.5 ± 0.1 in data set [1] (4% FBS, 4hrs, 1 µg/ml); 1.8 ± 0.1 in data set [1] (4% FBS, 24hrs, 0.1 µg/ml); 2.0 ± 0.0 in data set [1] (4% FBS, 24hrs, 0.5 µg/ml). In addition, the CBPI in data set [1] (4% FBS, 24hrs, 1 µg/ml) came to 1.8 ± 0.0; in data set [1] (4% FBS, 48hrs, 0.1 µg/ml) it was 1.6 ± 0.0; in data set [1] (4% FBS, 48hrs, 1 µg/ml) it was 1.2 ± 0.1; in data set [1] (setting [6]), 1.9 ± 0.0; in data set [1] (setting [7]), 1.9 ± 0.1. For the same compound, the “MN (total number of micronuclei)” value is 16.0 ± 1.4 ‰ in data set [1] (4% FBS, 4hrs, 0.05 µg/ml); 20.0 ± 1.4 ‰ in data set [1] (4% FBS, 4hrs, 0.1 µg/ml); 21.5 ± 0.7 ‰ in data set [1] (4% FBS, 4hrs, 0.5 µg/ml); 33.5 ± 5.0* ‰ in data set [1] (4% FBS, 4hrs, 1 µg/ml); 14.0 ± 0.0 ‰ in data set [1] (4% FBS, 24hrs, 0.1 µg/ml); 34.0 ± 1.4* ‰ in data set [1] (4% FBS, 24hrs, 0.5 µg/ml). For the same compound, the “MN (total number of micronuclei)” value in data set [1] (4% FBS, 24hrs, 1 µg/ml) is recorded as 35.0 ± 1.4* ‰; in data set [1] (4% FBS, 48hrs, 0.1 µg/ml) it was 17.0 ± 1.4 ‰; in data set [1] (4% FBS, 48hrs, […]) it was 20.5 ± 0.7 ‰; in data set [1] (setting [6]) it was 40.5 ± 0.7*; in data set [1] (setting [7]), 50.0 ± 1.4*. The “MN frequencies with 10% serum compared with 4% serum (in words)” value in data set [1] (24 hr treatment) is reported as “pronounced increase”. Besides, the “Lowest effective concentration (LOEC) in micronucleus experiments” value (“Lowest effective concentration (LOEC)” for short) in data set [1] (Huh6) is 0.5 µg/mL; in data set [2] (HepG2, ref Gajski et al., 2016), 0.1 (Gajski et al., 2016) μg/mL; in data set [3] (Human lymphocytes, ref Fowler et al., 2014) it was 1.0 (Fowler et al., 2014) μg/mL. The IARC classification entry in data set [4] is “Crosslinking agent; causes different types of DNA damage (gene mutations and CA); IARC: Group 2A”.

Take `O=P1(N(CCCl)CCCl)NCCCO1` (stereo not shown) [cyclophosphamide]: the “MN induction after 28 hr compared with 1 hr exposure (in words)” value in data set [2] is listed as “stronger effects”.

Regarding `COC(=O)Nc1nc2cc(C(=O)c3cccs3)ccc2[nH]1` [noctazole], in data set [5], the “MN formation with the longer exposure time, treatment for 1 or 7 days (in words)” value is on record as “no such effects”.

Regarding `OO` [H2O2, Hydrogen peroxide], in data set [1], the “Change of MN rates after 48 hr treatment (in words)” value is recorded as “slight decrease”, the “Induction of MN after 4 hr treatment (in words)” value was “did not cause an effect”, the “Lowest effective concentration (LOEC)” value is 10.0 µM and the “MN effects after 24 hr (or longer) compared with 4 hr treatment (in words)” value is reported as “more pronounced effects”. In addition, in data set [1], the “MN frequencies with 10% serum compared with 4% serum (in words)” value is recorded as “not increased”. Further, the “Lowest effective concentration (LOEC)” value in data set [3] is given as 100 (Andreoli et al., 1999) μM.

Regarding `COc1cc([C@@H]2c3cc4c(cc3[C@@H](O[C@@H]3O[C@@H]5CO[C@@H](C)O[C@H]5[C@H](O)[C@H]3O)[C@H]3COC(=O)[C@H]23)OCO4)cc(OC)c1O` [Etoposide], the CBPI came out at 1.8 ± 0.1 in data set [1] (4% FBS, 4hrs, 0.01 µg/ml); 1.8 ± 0.1 in data set [1] (4% FBS, 4hrs, 0.05 µg/ml); 1.8 ± 0.1 in data set [1] (4% FBS, 4hrs, 0.1 µg/ml); 1.9 ± 0.0 in data set [1] (4% FBS, 24hrs, 0.01 µg/ml); 1.8 ± 0.0 in data set [1] (4% FBS, 24hrs, 0.1 µg/ml); 1.7 ± 0.0 in data set [1] (4% FBS, 48hrs, 0.01 µg/ml). Also, the CBPI turned out to be 1.1 ± 0.0 in data set [1] (4% FBS, 48hrs, 0.1 µg/ml) and 1.9 ± 0.0 in data set [1] (10% FBS, 24 hr treatment, 0.1 µg/ml).

As for `ClC(Cl)=C(c1ccc(Cl)cc1)c1ccc(Cl)cc1` [dichlorodiphenyldichloroethylene], in data set [5], the “MN formation with the longer exposure time, treatment for 1 or 7 days (in words)” value was “no such effects”.
